Data on four molecules can be found in patent publication US6627630B1, “Condensed pyridazine derivatives, their production and use” (Takeda Chemical Industries, Ltd., priority 1998, dated 2003).

Series [1] deals with histamine-induced skin reactions. In words: Effect on histamine-induced skin reactions in guinea pigs. In kind it is in vivo, guinea pig. As to conditions: 1 hour before intradermal histamine. As for the experimental part:
Effect on Histamine-induced Skin Reactions in Guinea Pigs
(§1) Male Hartley guinea pigs weighing about 500 g were used. After the dorsal hair was shaved under ether anesthesia, 1 ml of a 2.5% pontamine sky blue solution was injected intravenously administered, and then 0.1 ml of histamine at 3 μg/ml was injected intradermally into 2 sites (left and right) in the back. Thirty minutes after the injection of histamine, animals were killed by bleeding and the skin was removed. Two perpendicular diameters (mm) of each blue spot on the inside of the skin were measured and multiplied; the mean for the two products was taken as the microvascular permeability index. Test compounds were suspended in a 5% gum arabic solution and orally administered in a volume of 0.2 ml/100 g body weight 1 hour before histamine administration. Animals in the control group received the same volume of a 5% gum arabic solution. The suppression rate of the sample for the title reaction was calculated using Equation 1.
Inhibition (%) of histamine-induced skin reactions=100×(1−vascular permeability index in the presence of drug/vascular permeability index in control group) Equation 1
as §1, with “bleeding and he skin was” for “bleeding and the skin was”, “measured and multiplied, the mean” for “measured and multiplied; the mean”

By melting point is commonly meant the temperature, or range, at which the solid turns liquid.

Turning to `O=C(CCN1CCC(OC(c2ccccc2)c2ccccc2)CC1)Nc1ccc2ncnn2n1` [Example 18A], in series [1] (Table 1), the “Inhibition (%) of Histamine-induced Skin Reactions, 3 mg/kg Oral Administration” value (shortened to “Inhibition (%)”) came to 91%.
Regarding `CC(C)(C(=O)O)c1cn2nc(OCCCN3CCC(OC(c4ccccc4)c4ccccc4)CC3)ccc2n1` [Example 45A], the “Inhibition (%)” value in series [1] (Table 1) was found to be 91%.
In the case of `CC(C)(C(=O)O)c1cn2nc(NCCCN3CCC(OC(c4ccccc4)c4ccccc4)CC3)ccc2n1.O.O` [Example 135A, 2-[6-[3-[4-(Diphenylmethoxy)piperidino]propylamino]imidazo[1,2-b]pyridazin-2-yl)-2-methylpropionic Acid Dihydrate], the “Inhibition (%)” value in series [1] (Table 1) and in series [1] (Table 3) was 91% throughout.
With `Cc1c(C(C)(C)C(=O)O)nc2ccc(NCCCN3CCC(OC(c4ccccc4)c4ccccc4)CC3)nn12` [Example 138A, 2-[6-[3-[4-(Diphenylmethoxy)piperidino]propylamino]-3-methylimidazo[1,2-b]pyridazin-2-yl]-2-methylpropionic Acid], the melting point was in the range of 219 to 220 °C.
